Assay [1] deals with ENR+CD organoids (ISC to Paneth cell differentiation). Description: Primary screen: CCh-stimulated lysozyme secretion LYZ.S, 2.5-D 384-well ENR+CD organoid differentiation. The assay is classed as cell-based, mouse. The conditions noted are these: primary screen. The text has this: (§1) High-throughput screening.
For assay [2], the system named is ENR+CD organoids. Description: Primary screen: ATP (CellTiter-Glo 3D, CTG) cell number/viability, 2.5-D 384-well ENR+CD organoids.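 As to all read-outs here: compounds given at plating and again on day 3 over a 6-day differentiation from ENR+CV stem-cell-enriched precursors, ATP measured on day 6, plate median as control.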 The conditions noted are these: primary screen; for Z.CTG: standard z score. (In general: In ATP-based viability assays light output follows the ATP content of the culture.)
Assay [3] concerns ENR+CD organoids (ISC to Paneth cell differentiation). Description: Primary screen: basal (non-stimulated) lysozyme secretion LYZ.NS, 2.5-D 384-well ENR+CD organoid differentiation. It is filed as cell-based, mouse. The conditions noted are these: primary screen; for Z.LYZ.NS: standard z score.
Text: as §1

Where [4] appears, read: dose 0.08 uM, FC relative to plate median.
[5] abbreviates: dose 0.40 uM, FC relative to plate median.
Setting [6] is: dose 2.00 uM, FC relative to plate median.
Setting [7] is: dose 10.00 uM, FC relative to plate median.

Structures are written as SMILES.

3 molecules from patent US20220323406A1, “METHODS AND COMPOSITIONS FOR DIFFERENTIATING STEM CELLS” (Massachusetts Institute of Technology, priority 2019, published 2022) can be followed below.

For the molecule `CCNC(=O)c1noc(-c2cc(C(C)C)c(O)cc2O)c1-c1ccc(CN2CCOCC2)cc1` [AUY922 (NVP-AUY922)], the Dose.FC.LYZ.S in assay [1] (dose 0.08 uM) is on record as −0.209 log2 fold change; in assay [1] (dose 0.40 uM), −0.184 log2 fold change; in assay [1] (dose 2.00 uM), −0.216 log2 fold change; in assay [1] (dose 10.00 uM), −0.214 log2 fold change. Further, the Dose.FC.CTG in assay [2] (dose 0.08 uM) was −1.185 log2 fold change; in assay [2] (dose 0.40 uM), −1.343 log2 fold change; in assay [2] (dose 2.00 uM), −1.137 log2 fold change; in assay [2] (dose 10.00 uM) it was −1.270 log2 fold change. Moreover, the “Z.CTG (standard z score)” value in assay [2] (dose 0.08 uM) is on record as −2.830; in assay [2] (dose 0.40 uM) it was −3.208; in assay [2] (dose 2.00 uM) it was −2.715; in assay [2] (dose 10.00 uM), −3.032. Also, the Dose.FC.LYZ.NS in assay [3] (dose 0.08 uM) is −0.144 log2 fold change; in assay [3] (dose 0.40 uM), −0.154 log2 fold change; in assay [3] (dose 2.00 uM), −0.138 log2 fold change; in assay [3] (dose 10.00 uM) it was −0.153 log2 fold change. Moreover, the “Z.LYZ.NS (standard z score)” value in assay [3] (dose 0.08 uM) is recorded as −1.251; in assay [3] (dose 0.40 uM), −1.343; in assay [3] (dose 2.00 uM), −1.200; in assay [3] (dose 10.00 uM) it was −1.330.
As to `O=C1NC(=O)C(c2ccccc2[N+](=O)[O-])=C1Nc1ccc(O)c(Cl)c1` [SB415286], the Dose.FC.LYZ.S is listed as 0.159 log2 fold change in assay [1] (setting [4]), −0.008 log2 fold change in assay [1] (setting [5]), −0.053 log2 fold change in assay [1] (setting [6]) and −0.042 log2 fold change in assay [1] (setting [7]). Also, the Dose.FC.CTG in assay [2] (setting [4]) is listed as 0.221 log2 fold change; in assay [2] (setting [5]), −0.004 log2 fold change; in assay [2] (setting [6]), −0.097 log2 fold change; in assay [2] (setting [7]), 0.123 log2 fold change. The Z.CTG in assay [2] (dose 0.08 uM) is recorded as 0.527; in assay [2] (dose 0.40 uM) it was −0.011; in assay [2] (dose 2.00 uM), −0.231; in assay [2] (dose 10.00 uM) it was 0.293. The Dose.FC.LYZ.NS in assay [3] (setting [4]) was 0.145 log2 fold change; in assay [3] (setting [5]), 0.012 log2 fold change; in assay [3] (setting [6]), 0.118 log2 fold change; in assay [3] (setting [7]), −0.016 log2 fold change. Further, the Z.LYZ.NS is 1.262 in assay [3] (dose 0.08 uM), 0.101 in assay [3] (dose 0.40 uM), 1.024 in assay [3] (dose 2.00 uM) and −0.136 in assay [3] (dose 10.00 uM).
For the molecule `COc1cc2c(cc1OC)[C@@H]1Cc3ccc(OC)c(OC)c3CN1CC2` [Rotundine], the Dose.FC.LYZ.S in assay [1] (setting [4]) is listed as 0.151 log2 fold change; in assay [1] (setting [5]) it was 0.049 log2 fold change; in assay [1] (setting [6]), 0.080 log2 fold change; in assay [1] (setting [7]), 0.095 log2 fold change. Besides, the Dose.FC.CTG was determined as 0.359 log2 fold change in assay [2] (setting [4]), 0.343 log2 fold change in assay [2] (setting [5]), 0.190 log2 fold change in assay [2] (setting [6]) and 0.227 log2 fold change in assay [2] (setting [7]). Besides, the Dose.FC.LYZ.NS in assay [3] (setting [4]) is recorded as 0.124 log2 fold change; in assay [3] (setting [5]), 0.032 log2 fold change; in assay [3] (setting [6]), 0.072 log2 fold change; in assay [3] (setting [7]), 0.126 log2 fold change. For the same molecule, the Z.LYZ.NS in assay [3] (dose 0.08 uM) was 1.082; in assay [3] (dose 0.40 uM), 0.282; in assay [3] (dose 2.00 uM), 0.623; in assay [3] (dose 10.00 uM) it was 1.100.
